Test results taken from patent publication US11261170B2, “Aromatic compound, pharmaceutical composition and use thereof” (Sichuan Kelun-Biotech Biopharmaceutical Co., Ltd., priority 2017, dated 2022).
Marks after values point to notes of the source that are not given here.

Legend:
[1] = Cytotoxicity test on HEK293 cells (CellTiter Glo); format: cell-based; details: human, incubated for 3 days
Experimental: (§1) Test Example 4: Cytotoxicity Test of Compound on HepG2 & Hek293 Cells
(§2) Cells: human hepatocyte HepG2, purchased from ATCC; Human embryonic kidney cells HEK293: purchased from ATCC;
(§3) Assay reagent: CellTiter Glo® Luminescent Cell Viability Assay, purchased from Promega.
(§4) HepG2 and HEK293 cells were incubated in DMEM/F12 medium containing 10% of fetal bovine serum respectively. A proper amount of cells were plated into a 96-well plate, the plate was placed in an incubator overnight, and the culture medium was removed, and replaced with a complete culture medium containing the compound of the application, and incubated for 3 days. On day 4, an assay reagent CellTiter Glo was added to each well, and the relative luminous unit (RLU) of each well was determined by chemiluminescence. CC50 values of the compound of the application to HepG2 and HEK293 cells were calculated by GraphPad software, and the results were shown in Table 3.

[2] = target: PPARγ (Homo sapiens (Human), UniProt P37231); assay: Activation of PPARγ in genetically engineered CHO-K1 cells (PathHunter); format: cell-based; details: PathHunter CHO-K1 PPARγ cell line, agonist format, 6 hours
Source text: (§5) Test Example 3: Experiment of Compounds on Activation of PPAR α, δ and γ in Genetically Engineered CHO-K1 Cells
(§6) Cell: PathHunter® CHO-K1 PPARα Protein Interaction Cell Line, PathHunter® CHO-K1 PPARδ Protein Interaction Cell Line and PathHunter® CHO-K1 PPARγ Protein Interaction Cell Line, provided by DiscoverX®.
(§7) Assay kit: PathHunter® Detection Kit, provided by DiscoverX®.
(§8) 1) Cell Handling: PathHunter NHR (nuclear hormone receptor, PPARα, δ, γ) cell lines were expanded from freezer stocks according to standard procedures. Cells were seeded in a total volume of 20 μL into white walled, 384-well microplates and incubated at 37° C., 5% CO2 for the appropriate time prior to testing. […]
(§9) 3) Signal detection: Assay signal was generated through a single addition of 12.5 or 15 μL (50% v/v) of PathHunter Detection reagent cocktail, followed by one-hour-incubation at room temperature. Microplates were read following signal generation with a PerkinElmer Envision™ instrument for chemiluminescent signal detection.
(§10) 4) Data analysis: Both compound activity and EC50S were analyzed using CBIS data analysis suite (ChemInnovation, CA). For agonist mode assays, percentage activity was calculated using the following formula: % Activity=100%×(mean RLU of test sample−mean RLU of vehicle control)/(mean MAX control ligand−mean RLU of vehicle control).

[3] = test system: MCD model of non-alcoholic steatohepatitis; assay: In vivo efficacy study in the MCD model of non-alcoholic steatohepatitis; parameters: species or system C57 Mice; details: MCD diet mice
Experimental: Test Example 6: In Vivo Efficacy Study of Compound in the MCD Model of Non-Alcoholic Steatohepatitis In this example, comparative test between compound GFT505 from WO2018133705A1 and compounds of the invention was conducted, so as to show the advantages of compounds of the invention. C57 Mice at 8-10 weeks of age (purchased from Vital River Laboratories) were body-weight matched and randomly divided into groups of normal, model, control and test. Mice in normal group were fed with standard chow for 9 weeks. Mice in model group, control group and test group were fed with MCD diet (Methionine-Choline Deficient Diet, Research Diets) for 9 weeks to induce NASH Model. During weeks 5-9 of the 9-week course of MCD diet, the control group and the test group were treated with GFT505 and TM4 of the invention, respectively, and the normal group and model group were treated with 0.5% MC. The dosage regimen was specified in table 5. [table] Animals were dissected after administration on day 35, livers were collected for H&E staining (hematoxylin-eosin staining) and sirius red staining. And then NAFLD activity score, including liver steatosis score, inflammation score and ballooning score, and liver fibrosis score were conducted.

[4] = target: T1, PPARα (Homo sapiens (Human), UniProt Q07869); assay: Activation of transient transfected PPAR α in HEK293 cells (GAL4-hPPAR α luciferase assay); format: cell-based; details: HEK293 transfected with GAL4-hPPAR α, 24 h incubation
Experimental: Test example 1: Experiment of the compounds on activation of transient transfected PPAR α in HEK293 cells
Plasmid: pcDNA3.1(+)-GAL4-hPPAR α, customized by Nanjing Kebai Biotechnology Co., Ltd.
(§11) Liposome: PGL4.35, customized by Nanjing Kebai Biotechnology Co., Ltd.
(§12) Cell: human embryonic kidney cells HEK293, purchased from ATCC.
(§13) Transfection reagent: Lipofectamine Reagent 3000 purchased from Invitrogen.
(§14) Assay kit: Bright Glo™ Luciferase Assay System purchased from Promega.
(§15) HEK293 cells were incubated in DMEM medium containing 10% of fetal bovine serum at 37° C. in the presence of 5% of CO2. 3×10^5/ml cells were plated in each well of the 6-well plate. When the cell convergence degree reached 50%-80%, 5 μg of liposome PGL4.35 and 5 μg of expression plasmid pcDNA3.1(+)-GAL4-hPPAR α were added to transfect the cells for 24 h and then the cells were collected. The transfected cells were plated in the 96-well plate and the compounds of the application in different concentrations were added, incubated for 24 h, and Bright Glo™ Luciferase Assay System reagent was added for luciferase assay.
Target sequence in this assay (Q07869 whole entry, looked up, the tested form may be a part): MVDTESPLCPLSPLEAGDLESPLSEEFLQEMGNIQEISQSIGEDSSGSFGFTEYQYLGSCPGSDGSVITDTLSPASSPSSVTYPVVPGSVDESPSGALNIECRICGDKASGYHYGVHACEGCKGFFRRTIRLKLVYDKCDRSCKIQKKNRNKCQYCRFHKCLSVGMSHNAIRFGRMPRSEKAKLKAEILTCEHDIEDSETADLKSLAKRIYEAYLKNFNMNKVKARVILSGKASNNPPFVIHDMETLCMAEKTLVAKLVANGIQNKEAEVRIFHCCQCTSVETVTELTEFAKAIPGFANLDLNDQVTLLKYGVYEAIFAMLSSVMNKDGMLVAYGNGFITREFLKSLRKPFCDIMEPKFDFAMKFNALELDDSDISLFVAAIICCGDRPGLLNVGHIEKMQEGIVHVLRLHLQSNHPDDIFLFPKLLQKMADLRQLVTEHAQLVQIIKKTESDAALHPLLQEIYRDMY

[5] = Cytotoxicity test on HepG2 cells (CellTiter Glo); format: cell-based; details: human, incubated for 3 days
Experimental: as §1, §2, §3, §4

[6] = target: hERG potassium ion channel (Homo sapiens (Human), UniProt Q12809); assay: Predictor hERG fluorescence polarization; format: binding
Experimental: Test Example 5: In Vitro Safety Test
The effect of the compound on hERG potassium ion channel was tested by Predictor™ hERG fluorescence polarization.

[7] = target: T2, PPARδ (Homo sapiens (Human), UniProt Q03181); assay: Activation of transient transfected PPAR δ in HEK293 cells (GAL4-hPPAR δ luciferase assay); format: cell-based; details: HEK293 transfected with GAL4-hPPAR δ, 24 h incubation
Experimental: Test Example 2: Experiment of the Compounds on Activation of Transient Transfected PPAR δ in HEK293 Cells
Plasmid: pcDNA3.1(+)-GAL4-hPPAR δ, customized by Nanjing Kebai Biotechnology Co., Ltd.
as §11, §12, §13, §14
as §15, with “δ” for “α”, “Then, the” for “The”, “reagent” for “reagent was added”, “assay was added.” for “assay.”
Target sequence in this assay (Q03181 whole entry, looked up, the tested form may be a part): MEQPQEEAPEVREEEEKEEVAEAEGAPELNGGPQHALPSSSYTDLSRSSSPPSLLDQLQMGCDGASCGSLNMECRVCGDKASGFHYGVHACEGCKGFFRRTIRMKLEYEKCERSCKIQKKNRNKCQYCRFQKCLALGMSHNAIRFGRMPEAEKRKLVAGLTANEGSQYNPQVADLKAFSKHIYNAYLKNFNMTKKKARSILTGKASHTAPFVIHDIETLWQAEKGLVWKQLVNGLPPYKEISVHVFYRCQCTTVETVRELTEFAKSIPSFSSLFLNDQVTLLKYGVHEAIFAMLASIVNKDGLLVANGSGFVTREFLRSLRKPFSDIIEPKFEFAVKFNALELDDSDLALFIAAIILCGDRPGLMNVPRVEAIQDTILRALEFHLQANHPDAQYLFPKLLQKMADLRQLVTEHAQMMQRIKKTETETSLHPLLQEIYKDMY

[8] = target: T2, PPARδ; assay: Activation of PPARδ in genetically engineered CHO-K1 cells (PathHunter); format: cell-based; details: PathHunter CHO-K1 PPARδ cell line, agonist format, 6 hours
Source text: as §5, §6, §7, §8, §9, §10
Target sequence in this assay (Q03181 whole entry, the tested form may be a part): as the sequence (Q03181 whole entry, looked up, the tested form may be a part) above

[9] = target: T1, PPARα; assay: Activation of PPARα in genetically engineered CHO-K1 cells (PathHunter); format: cell-based; details: PathHunter CHO-K1 PPARα cell line, agonist format, 6 hours
Source text: as §5, §6, §7, §8, §9, §10
Target sequence in this assay (Q07869 whole entry, the tested form may be a part): as the sequence (Q07869 whole entry, looked up, the tested form may be a part) above

[10] = 1 mg/kg intragastric once every day for 35 days
[11] = 1 mg/kg, 35 days, result in words

PPARγ, sequence (P37231 whole entry): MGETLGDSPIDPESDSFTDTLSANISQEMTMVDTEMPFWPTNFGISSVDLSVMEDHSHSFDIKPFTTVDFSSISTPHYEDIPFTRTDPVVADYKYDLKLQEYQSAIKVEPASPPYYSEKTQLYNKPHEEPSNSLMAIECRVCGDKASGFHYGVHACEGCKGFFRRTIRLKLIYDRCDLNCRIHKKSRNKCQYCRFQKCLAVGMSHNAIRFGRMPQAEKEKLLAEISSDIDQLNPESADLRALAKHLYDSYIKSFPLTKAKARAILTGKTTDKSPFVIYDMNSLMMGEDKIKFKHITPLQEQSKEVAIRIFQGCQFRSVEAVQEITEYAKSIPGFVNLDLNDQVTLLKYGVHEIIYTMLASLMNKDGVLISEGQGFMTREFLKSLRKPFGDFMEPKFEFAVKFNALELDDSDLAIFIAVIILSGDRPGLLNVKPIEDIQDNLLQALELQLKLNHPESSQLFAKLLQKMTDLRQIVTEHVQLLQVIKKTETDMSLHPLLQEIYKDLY
hERG potassium ion channel, sequence (Q12809 whole entry): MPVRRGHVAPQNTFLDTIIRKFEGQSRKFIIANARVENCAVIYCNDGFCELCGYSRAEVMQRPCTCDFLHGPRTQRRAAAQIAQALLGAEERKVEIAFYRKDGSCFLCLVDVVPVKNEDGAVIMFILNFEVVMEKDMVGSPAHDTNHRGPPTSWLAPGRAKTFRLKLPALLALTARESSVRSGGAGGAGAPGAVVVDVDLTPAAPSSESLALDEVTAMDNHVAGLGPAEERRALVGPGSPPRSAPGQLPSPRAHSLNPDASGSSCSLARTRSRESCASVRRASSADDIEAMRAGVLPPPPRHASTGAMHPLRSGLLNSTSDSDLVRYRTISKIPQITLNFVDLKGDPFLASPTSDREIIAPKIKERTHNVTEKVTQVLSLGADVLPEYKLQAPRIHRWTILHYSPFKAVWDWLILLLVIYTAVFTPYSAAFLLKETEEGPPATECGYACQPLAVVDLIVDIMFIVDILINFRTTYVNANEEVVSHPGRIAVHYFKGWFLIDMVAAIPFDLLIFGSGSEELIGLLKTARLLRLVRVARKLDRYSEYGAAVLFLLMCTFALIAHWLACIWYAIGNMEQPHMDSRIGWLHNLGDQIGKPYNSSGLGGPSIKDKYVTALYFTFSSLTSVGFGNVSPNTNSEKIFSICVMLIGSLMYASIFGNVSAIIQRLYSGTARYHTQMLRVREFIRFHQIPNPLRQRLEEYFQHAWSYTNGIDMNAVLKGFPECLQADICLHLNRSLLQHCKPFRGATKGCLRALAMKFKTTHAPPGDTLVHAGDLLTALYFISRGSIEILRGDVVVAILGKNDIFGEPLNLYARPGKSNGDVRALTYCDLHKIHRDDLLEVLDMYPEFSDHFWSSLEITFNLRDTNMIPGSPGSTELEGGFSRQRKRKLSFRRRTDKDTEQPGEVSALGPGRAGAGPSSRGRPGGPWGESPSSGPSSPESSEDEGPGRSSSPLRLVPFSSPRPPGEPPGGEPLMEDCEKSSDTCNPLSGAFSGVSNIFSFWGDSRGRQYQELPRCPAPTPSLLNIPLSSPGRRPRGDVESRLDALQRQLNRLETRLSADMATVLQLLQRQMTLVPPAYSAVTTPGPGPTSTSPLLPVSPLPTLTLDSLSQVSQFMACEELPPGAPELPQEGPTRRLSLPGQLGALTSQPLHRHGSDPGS

Structure (SMILES) | CC50 at 3 days [1] [nM] | EC50 [2] [nM] | Liver fibrosis score (Mean ± SD) [3, 10] | NAFLD activity score (Mean ± SD) [3, 10] | Reduction of NAFLD activity score compared with model group [3, 11] | Reduction of liver fibrosis score compared with model group [3, 11] | EC50 [4] [nM] | CC50 at 3 days [5] [nM] | IC50 [6] [nM] | EC50 [7] [nM] | EC50 [8] [nM] | EC50 [9] [nM]
COc1nc2ccccc2cc1C(=O)/C=C/c1cc(C)c(OC(C)(C)C(=O)O)c(C)c1 [Example 5, (E)-2-(4-(3-(2-methoxyquinolin-3-yl)-3-oxo-1-propen-1-yl)-2,6-dimethylphenoxy)-2-met hylpropionic acid] | 7130 | 174 | 0.88 ± 0.35^b | 3.00 ± 0.93^b | significant reduction | significant reduction | 28.3 | 13000 | > 10000 | 556 | 797 | 23
COc1nc2ccccc2cc1C(=O)CCc1cc(C)c(OC(C)(C)C(=O)O)c(C)c1 [TM42, 2-(4-(3-(2-methoxyquinolin-3-yl)-3-oxopropyl)-2,6-dimethylphenoxy)-2-methylpropanoic acid] | – | 1950 | – | – | – | – | – | – | – | – | 496 | 63
